What was measured:
[1] = target: T1, Recombinant, purified TCPTP (Homo sapiens, UniProt P17706); assay: In vitro phosphatase assay with purified TCPTP protein (diFMUP substrate); format: biochemical; details: TAT peptides of D-amino acids, FIG. 4C
T1 construct: made in house
T1 sequence (P17706 1-387 isoform P17706-2): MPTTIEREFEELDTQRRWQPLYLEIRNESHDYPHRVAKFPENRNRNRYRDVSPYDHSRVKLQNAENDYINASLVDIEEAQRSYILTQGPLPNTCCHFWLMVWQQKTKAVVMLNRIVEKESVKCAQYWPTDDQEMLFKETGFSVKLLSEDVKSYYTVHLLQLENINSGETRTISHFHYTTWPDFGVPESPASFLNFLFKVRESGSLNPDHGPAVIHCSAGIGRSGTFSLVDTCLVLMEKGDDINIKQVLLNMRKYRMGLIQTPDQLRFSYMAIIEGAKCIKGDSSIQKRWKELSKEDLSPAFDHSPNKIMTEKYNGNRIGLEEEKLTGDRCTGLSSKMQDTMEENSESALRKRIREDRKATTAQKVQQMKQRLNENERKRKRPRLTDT
Method: FIG. 4. α1 integrin activates TCPTP and attenuates VEGFR2 signalling. (A) Serum-starved subconfluent HUVEC were treated for 1 h with α1 integrin cytoplasmic tail fusion peptide (α1TAT) or TAT-scramble control fusion peptide (ScrTAT) (both at 200 nM) followed by VEGF-induction (100 ng/ml, 15 min) where indicated. Cell lysates were resolved on SDS-PAGE and immunoblotted for phosphorylated VEGFR2 (or tubulin as a control). (B) HUVEC were treated as in (A) and VEGFR2 kinase activity (mean±SD, n=3) was measured from the cell lysates. **, p<0.01. (C) Recombinant, purified TCPTP was incubated with α1 or α2 cytoplasmic tail peptides (L-amino acids) or with α1 and scrambled TAT peptides (D-amino acids) and analyzed for phosphatase activity (mean±SD, n=3).
Phosphatase and kinase assays. Phosphatase assays were performed as described (8). Briefly, HUVEC were plated to collagen or gelatin coated plates and allowed to adhere for 1 h. TCPTP, SHP2 and control immunocomplexes were isolated from cell lysates, resuspended in the phosphatase assay buffer and assayed for phosphatase activity using 6,8-difluoro-4-methylumbelliferyl phosphate; Molecular Probes) as a substrate in the presence of a serine/threonine phosphatase inhibitor cocktail (Sigma). Thereafter, the antigens from the beads were used for immunoblotting. […]

HUVEC = assay: Time-lapse chemokinesis assay; format: cell-based, human; details: HUVEC on gelatin, 4 hours time-lapse, peptide 200 nM, FIG. 5B
Method: FIG. 5. Controlled TCPTP activation inhibits VEGF-driven capillary formation, chemokinesis and chemotaxis. (A) HUVEC were cultured in fibrin gels and treated with or without VEGF and TAT peptides (200 nM). After 24 h the formation of capillary tubes was semiquantitatively scored. (B) HUVEC were plated on gelatin in the presence of the peptides (200 nM) or left untreated for 1 h. The cells were stimulated as indicated and migration of individual cells was tracked using time-lapse microscopy. Cumulative migration distance was plotted for randomly picked individual cells. (C) HUVEC were treated with 200 nM peptides and the transmigration assay was performed as in FIG. 3D. (D) HUVEC were transfected with siRNA against TCPTP or a control siRNA, and TCPTP expression was analysed with immunofluorescence. Equal exposures of TCPTP (green) and DAPI (blue) stainings are shown. 48 h post-transfection cells were subjected to transmigration assay as in […].
FIG. 9. TCPTP activation by α1-peptide inhibits VEGF induced chemokinesis. HUVEC were plated on gelatin in the presence of the peptides (200 nM) or left untreated for 1 h. The cells were stimulated as indicated and migration of individual cells was tracked using time-lapse microscopy. Representative images of individual cells overlayed with their migration patterns (different colours) at the indicated time points are shown.
Time-lapse chemokinesis assays. HUVEC were plated on gelatin-coated wells and allowed to attach for 1 h in the presence or absence of 200 nM α1TAT or ScrTAT and 20 ng/ml VEGF. Migration of individual cells was recorded at 5 min intervals for 4 h using 20× objective and digital video recording. The migration pathway of at least ten randomly picked cells was tracked using the Metamorph program. The cumulative migration distances were also plotted.

Row | Sequence | activation of TCPTP phosphatase activity [1] | inhibition of VEGF-induced chemokinesis (HUVEC)
1 | YGRKKRRQRRRWKLGFFKRPLKKKMEK (SEQ ID NO 3) [α1TAT] | very good activator | 76±4%
2 | YGRKKRRQRRRLKGWRFKLKPKFKEMK (SEQ ID NO 8) [ScrTAT, reference compound] | no effect | no significant effect

— patent US20100160228A1, “METHOD FOR INHIBITING OR STIMULATING ANGIOGENESIS IN AN INDIVIDUAL” (VALTION TEKNILLINEN TUTKIMUSKESKUS, priority 2007, published 2010)
